According to patent US8119667B2, “Carbonates of fenicol antibiotics” (Schering-Plough Animal Health Corporation, priority 2005, dated 2012):
Values after ≈ are worked out from the molar mass of the structure shown.

How the values were obtained:
[1] = Solubility in triacetin/benzyl alcohol 2:1 (volume/volume) solvent mixture; assay type: physicochemical; details: 20° C.
Procedure: Florfenicol parent drug was not soluble in triacetin/benzyl alcohol 2:1 (volume/volume) even at concentrations as low as 10% (weight/volume). […] The combination of prodrug of Example 14 at 275 mg/ml and florfenicol at 100 mg/ml was soluble in triacetin/benzyl alcohol 2:1 (volume/volume) and provided a stable solution with 30% (weight/volume) content of florfenicol (Table 4, supra, entry 12).

[2] = Aqueous solubility; assay type: physicochemical; details: aqueous medium (not further specified)
Procedure: In some therapeutic applications florfenicol is administered in concentrated organic solution subcutaneously where it is known to form localized depot of the drug which results in the desired sustained release of the drug into the circulation. In such cases solubility of florfenicol in aqueous media represents one of important factors determining the rate of the sustained release. Another important factor affecting the sustained release of florfenicol from the subcutaneous depot site is the concentration of the dosing solution and the solvent composition of the formulation. Apart from the broader range of solvents which can be used for acceptable formulations of florfenicol benzylic carbonate prodrugs these prodrugs also allow a wide range of aqueous solubilities. Solubilities achieved with these prodrugs range from slightly to dramatically lower than that of florfenicol. Reduced aqueous solubilities of such prodrugs may be useful in controlling the rate of dissolution of the prodrug at the subcutaneous depot site and may allow achieving optimized sustained release of the parent drug.

[3] = Syringeability of dosing solutions (dripping-syringe method); assay type: physicochemical
Procedure: Table 4, below, provides evaluations of the syringeability of dosing solutions of selected florfenicol benzylic carbonate prodrugs at concentrations equivalent to 300 mg/ml florfenicol (30% weight/volume).
High concentrations of fenicol or fenicol drug contained in a fenicol prodrug are often necessary for convenient administration of the necessary amount of the desired amount of the antibiotic. Due to the limited solubility of fenicols in many organic solvents or mixtures of solvents acceptable for injectable formulations the choice of solvents for preparation of highly concentrated florfenicol solutions is limited. As a result highly concentrated solutions of fenicol drugs in organic solvents or solvent mixtures may become highly viscous and difficult to administer by a syringe. Therefore the ability of fenicol benzylic carbonate prodrugs to dissolve in a wider range of organic solvents or mixtures of solvents acceptable for injectable formulations offered the potential to prepare highly concentrated solutions for injections with lower viscosity. […] Test solutions of florfenicol benzylic carbonates containing concentrations of florfenicol (mg/mL) equivalent to the concentration present in Nuflor® formulation were prepared. Syringeabilities of the solutions were evaluated by means of the “dripping syringe” method in which the dripping times (sec) of equal volumes of such solutions under free gravitational flow conditions from a vertically positioned syringe were measured at 15° C. After removing the plunger from a 5 ml polyethylene disposable syringe (5 ml Luer, Norm-Ject Zentrish/Henke Saas Wolf GMBH) and fitting the syringe with a disposable needle (B-D® 16G1 Precision Glide/BentonDickinson & CO) the test solutions were loaded from the top into the syringe and the time necessary for the free flow of 2 mL of solution (between 3 ml and 1 ml marks) was recorded in triplicate. The syringeabilities relative to Nuflor® were calculated by dividing the dripping time for the test solutions (entries 1-12) by the dripping time measured for the commercial sample of Nuflor® formulation (entry 13) As it is evident from the results in Table 4 the syringeabilities of tested solutions containing benzyl alcohol as viscosity diluent had relative syringeabilities <1.00 and were therefore better than Nuflor® (30% weight/volume florfenicol solution in propylene glycol/polyethylene glycol 300/2-methyl pyrolidinone). Due to their better syringeability these solutions represent more favorable formulations for injectable delivery of florfenicol. Solution of the florfenicol benzylic carbonate of the example 2 in triacetin/2-pyrolidinone—1/1 lacking the benzyl alcohol viscosity diluent was the only solution with syringeability poorer that than that of Nuflor® (entry 5).

[4] = In vitro enzymatic release of parent florfenicol from prodrugs in bovine serum; assay type: in vitro ADME; details: for Florfenicol released from prodrugs (% of total) after treatment with bovine serum: 37° C.; for rates of florfenicol release in serum: bovine serum, among the compounds tested
Excerpt: The ability of a prodrug derivative of a parent drug molecule to act efficiently in vivo as a source of the free parent drug determines the utility of a particular prodrug for treatment. The prodrug's ability to release the parent drug in vivo, in the presence of endogenous enzymes, can be determined by measuring the systemic levels of the parent drug after administration of the prodrug to the animal. This releasibility can also be assessed in vitro by measuring the release of the parent drug after mixing with animal whole blood, plasma or serum. Selected benzylic carbonate prodrugs of florfenicol were tested for release of florfenicol after in vitro mixing with bovine serum. […] A general trend of more lipophilic carbonates of florfenicol showing higher rates of degradation and release seems to be present among the compounds tested.
50 microliter of stock solution of carbonate pro-drug (10 mg/mL in DMSO) was added to 5 mL donor bovine serum and mixed. Aliquots of 400 microliter of the resulting solution were transferred into 1.5 mL plastic centrifuge tubes. Each plastic tube was placed into at 37° C. water bath for incubation. Samples were removed at 0, 1, 2, 4, 8, and 24 hours, and after addition of 400 microliter of acetonitrile to stop the reaction, rapidly stirred for 30 seconds. The precipitate was removed by centrifugation on an Eppendorf 5415G at 14000 rpm for 5 minutes. The clear supernatant solution was sampled for the HPLC analysis. The peak area of florfenicol was used to calculate the conversion of the prodrugs.

[5] = prodrug concentration equivalent to 300 mg/ml florfenicol, Triacetin/benzyl alcohol - 2:1 (vol/vol), 15° C.
[6] = prodrug concentration equivalent to 300 mg/ml florfenicol, Triacetin/benzyl alcohol - 2:1 (vol/vol), free flow of 2 mL at 15° C.
[7] = 300 mg/ml, N-methyl 2-pyrolidinone/propylene glycol/polyethylene glycol 300, 15° C.
[8] = prodrug concentration equivalent to 300 mg/ml florfenicol, Triacetin/benzyl alcohol/2-pyrolidinone - 2:1:1.5, 15° C.

Row | Structure (SMILES) | melting point | Solubility at selected concentration of contained florfenicol ([1]; 10% weight/volume florfenicol) | Solubility at selected concentration of contained florfenicol ([1]; 20% weight/volume florfenicol) | Solubility at selected concentration of contained florfenicol ([1]; 25% weight/volume florfenicol) | Solubility at selected concentration of contained florfenicol ([1]; 30% weight/volume florfenicol) | Solubility at selected concentration of contained florfenicol ([1]; 35% weight/volume florfenicol) | Solubility at selected concentration of contained florfenicol ([1]; 37% weight/volume florfenicol) | Solubility at selected concentration of contained florfenicol ([1]; 40% weight/volume florfenicol) | solubility [2] | Florfenicol released from prodrugs (% of total) after treatment with bovine serum ([4]; 0 h) | also measured
1 | CS(=O)(=O)c1ccc([C@@H](OC(=O)OCC2CC2)[C@@H](CF)NC(=O)C(Cl)Cl)cc1 [Example 6, Cyclopropylmethyl(1R,2S)-2-(2,2-dichloroacetamido)-3-fluoro-1-(4-(methylsulfonyl)phenyl)propyl carbonate] | 132 to 134 °C |  |  |  |  |  |  |  | 120 µg/mL (≈ 263 µM) |  | 
2 | CCOCCOC(=O)O[C@H](c1ccc(S(C)(=O)=O)cc1)[C@@H](CF)NC(=O)C(Cl)Cl [Example 12, (1R,2S)-2-(2,2-dichloroacetamido)-3-fluoro-1-(4-(methylsulfonyl)phenyl)propyl 2-ethoxyethyl carbonate] | 88 to 90 °C |  |  |  |  |  |  |  | 350 µg/mL (≈ 738 µM) |  | 
3 | CC(C)CCOC(=O)O[C@H](c1ccc(S(C)(=O)=O)cc1)[C@@H](CF)NC(=O)C(Cl)Cl [Example 8, (1R,2S)-2-(2,2-dichloroacetamido)-3-fluoro-1-(4-(methylsulfonyl)phenyl)propyl isopentyl carbonate] | 120 to 122 °C |  |  |  |  |  |  |  | 25 µg/mL (≈ 52.9 µM) | BQL | Syringeability measurement: Dripping time [3, 8]: 157 ± 1 s; Syringeability measurement: Relative to NUFLOR [3, 8]: 0.67; rates of florfenicol release in serum [4]: highest rates
4 | CCCCOCCOC(=O)O[C@H](c1ccc(S(C)(=O)=O)cc1)[C@@H](CF)NC(=O)C(Cl)Cl [Example 13, (1R,2S)-2-(2,2-dichloroacetamido)-3-fluoro-1-(4-(methylsulfonyl)phenyl)propyl 2-butoxyethyl carbonate] |  | soluble | soluble | soluble | soluble | soluble | soluble | soluble | 150 µg/mL (≈ 299 µM) | BQL | Syringeability measurement: Relative to NUFLOR [3, 5]: 0.61; Syringeability measurement: Dripping time [3, 6]: 141 ± 5 s; Florfenicol released from prodrugs (% of total) after treatment with bovine serum ([4]; 1 h): BQL
5 | CC(C)COC(=O)O[C@H](c1ccc(S(C)(=O)=O)cc1)[C@@H](CF)NC(=O)C(Cl)Cl [Example 5, (1R,2S)-2-(2,2-dichloroacetamido)-3-fluoro-1-(4-(methylsulfonyl)phenyl)propyl isobutyl carbonate] | 156 to 158 °C |  |  |  |  |  |  |  | 7 µg/mL (≈ 15.3 µM) |  | 
6 | CC(C)OC(=O)O[C@H](c1ccc(S(C)(=O)=O)cc1)[C@@H](CF)NC(=O)C(Cl)Cl [Example 4, (1R,2S)-2-(2,2-dichloroacetamido)-3-fluoro-1-(4-(methylsulfonyl)phenyl)propyl isopropyl carbonate] | 148 to 150 °C |  |  |  |  |  |  |  | 100 µg/mL (≈ 225 µM) | BQL | Syringeability measurement: Dripping time [3, 8]: 164 ± 3 s; Syringeability measurement: Relative to NUFLOR [3, 8]: 0.70; Florfenicol released from prodrugs (% of total) after treatment with bovine serum ([4]; 1 h): BQL; Florfenicol released from prodrugs (% of total) after treatment with bovine serum ([4]; 2 h): BQL
7 | COCCOC(=O)O[C@H](c1ccc(S(C)(=O)=O)cc1)[C@@H](CF)NC(=O)C(Cl)Cl [Example 11, (1R,2S)-2-(2,2-dichloroacetamido)-3-fluoro-1-(4-(methylsulfonyl)phenyl)propyl 2-methoxyethyl carbonate] |  |  |  |  |  |  |  |  | 770 µg/mL (≈ 1670 µM) |  | 

More lines, main results first:

Row | melting point | Solubility at selected concentration of contained florfenicol ([1]; 10% weight/volume florfenicol) | Solubility at selected concentration of contained florfenicol ([1]; 20% weight/volume florfenicol) | Solubility at selected concentration of contained florfenicol ([1]; 25% weight/volume florfenicol) | Solubility at selected concentration of contained florfenicol ([1]; 30% weight/volume florfenicol) | Solubility at selected concentration of contained florfenicol ([1]; 35% weight/volume florfenicol) | Solubility at selected concentration of contained florfenicol ([1]; 37% weight/volume florfenicol) | Solubility at selected concentration of contained florfenicol ([1]; 40% weight/volume florfenicol) | solubility [2] | Florfenicol released from prodrugs (% of total) after treatment with bovine serum ([4]; 0 h) | Structure (SMILES) | also measured
8 | 105 to 106 °C | soluble | soluble | soluble | soluble | soluble | soluble | insoluble | 32 µg/mL (≈ 65 µM) | BQL | CS(=O)(=O)c1ccc([C@@H](OC(=O)OCc2ccccc2)[C@@H](CF)NC(=O)C(Cl)Cl)cc1 [Example 14, Benzyl(1R,2S)-2-(2,2-dichloroacetamido)-3-fluoro-1-(4-(methylsulfonyl)phenyl)propyl carbonate] | Syringeability measurement: Relative to NUFLOR [3, 5]: 0.88; Syringeability measurement: Dripping time [3, 6]: 204 ± 9 s; rates of florfenicol release in serum [4]: highest rates
9 |  | not soluble | insoluble | insoluble | insoluble | insoluble | insoluble | insoluble | 1530 µg/mL (≈ 4270 µM) |  | CS(=O)(=O)c1ccc([C@@H](O)[C@@H](CF)NC(=O)C(Cl)Cl)cc1 [Florfenicol, D-(threo)-1-(4-methylsulfonylphenyl)-2-dichloroacetamido-3-fluoro-1-propanol, reference compound] | Solubility at selected concentration of contained florfenicol ([1]; 10% weight/volume florfenicol, listed as florfenicol): insoluble; Syringeability measurement: Dripping time [3, 7]: 233 ± 2 s; Syringeability measurement: Relative to NUFLOR [3, 7]: 1.00
10 | 44 to 54 °C |  |  |  |  |  |  |  | 550 µg/mL (≈ 1090 µM) |  | CCOC(=O)[C@H](C)OC(=O)O[C@H](c1ccc(S(C)(=O)=O)cc1)[C@@H](CF)NC(=O)C(Cl)Cl [Example 17] | 
11 | 110 to 112 °C | soluble | soluble | soluble | soluble | soluble | soluble | soluble | 45 µg/mL (≈ 54.2 µM) | BQL | CS(=O)(=O)c1ccc([C@@H](OC(=O)OCCOC(=O)O[C@H](c2ccc(S(C)(=O)=O)cc2)[C@@H](CF)NC(=O)C(Cl)Cl)[C@@H](CF)NC(=O)C(Cl)Cl)cc1 [Example 26, Bis((1R,2S)-2-(2,2-dichloroacetamido)-3-fluoro-1-(4-(methylsulfonyl)phenyl)propyl)ethane-1,2-diyl dicarbonate] | Syringeability measurement: Relative to NUFLOR [3, 5]: 0.93; Syringeability measurement: Dripping time [3, 6]: 216 ± 8 s; Florfenicol released from prodrugs (% of total) after treatment with bovine serum ([4]; 1 h): BQL
